# Experimental data taken from patent US20110053860A1, “COX-2 function and wound healing” (priority 2001, published 2011).
# Tests used:
# [1] = system: rat closed femur fracture model; test: Torsional mechanical testing of fractured femurs; format: in vivo, male Sprague-Dawley rats; conditions: for normalized shear stress / normalized torsional rigidity / normalized peak torque / normalized maximum shear stress: percentage of contralateral unfractured femur; for normalized shear stress: no drug 36; for Shear Modulus, mean / Peak Torque (Tmax), mean: fractured femur; for Peak Torque (Tmax), mean: not normalized; for Mal-Union (Stage III), frequency / Non-Union (Stage I/II), frequency / Union (Stage IV), frequency: mechanically tested fractured femurs at 8 weeks post-fracture; for normalized maximum shear stress: no drug 48; for effect on fracture healing at the dose and treatment regime used: daily gavage, indomethacin 1 mg/kg, celecoxib 4 mg/kg, rofecoxib 3 mg/kg
# Method: (§1) A total of 253 male Sprague-Dawley rats (584.+−0.62 g) were fed a standard diet and kept caged separately in a constant temperature and humidity environment. All rats were 6-9 months old at the beginning of the experiment. Drugs were administered daily by gavage beginning two days prior to fracture. Animals were randomly selected for each treatment group. […] No drug (control) rats were not initially gavaged but later rats were gavaged with water and no difference was noted between the no drug rats that had been gavaged and those that had not. No statistically significant differences were found in animal weight changes during the experiments.
# (§2) The rats were anesthetized by intraperitoneal injection of ketamine (40 mg/kg) and xylazine (5 mg/kg). Under aseptic conditions, a medial parapatellar incision (0.4-0.5 cm) was made in the right hindlimb and the patella was dislocated laterally. The medullary canal was entered through the intercondylar notch and reamed with an 18-gauge needle. A 1.1 mm stainless steel pin (Small Parts Inc., Miami Lakes, Fla.) was then inserted into the canal and secured in the proximal part of the greater trochanter by tamping. The distal portion of the pin was then cut flush with the femoral condyles and the patella dislocation was reduced. The soft tissue and skin were closed with 4-0 vicryl sutures. After closing, the diaphysis of the pinned femur was fractured by means of a three-point bending device as described by Bonnarens and Einhorn (Bonnarens and Einhorn 1984).
# Animals within each treatment group were sacrificed at 4, 6, and 8 weeks post-fracture by CO2 asphyxiation. Animals with oblique, comminuted, or infected fractures were not used for mechanical testing. Both femora were removed and cleaned of all soft tissue leaving the fracture callus undisturbed and then immediately processed for mechanical testing. The samples were wrapped in saline soaked gauze to prevent dehydration between steps. Measurements of the femora were taken using digital calipers to determine femur length and external callus dimensions. The intramedullary pin was removed from the fractured femur and a 1 mm-diameter stainless steel pin (˜0.8 cm length) was inserted at the proximal and distal end perpendicular to the long axis of the bone to prevent slipping in the potting material. The intact femur was also pinned as described above. The femoral ends were potted in 1-inch hexnuts using a low melt temperature metal (Wood's metal, Alfa Aesar, Ward Mill, Mass.). Once potted, the gage length (L) of each femur was measured. Torsional testing was conducted using a servohydraulic testing machine (MTS, Eden, Praire, Minn.) with a 20 Nm reaction torque cell (Interface, Scottsdale, Ariz.). The testing was carried out to failure at a rate of 2°/sec and a data recording rate of 20 Hz. Both the fractured and intact femora were tested in internal rotation in proper anatomic orientation. The peak torque and angle at failure were calculated from the load-deformation curves. Internal fracture callus dimensions were measured after mechanical testing. From the callus dimensions, the polar moment of inertia (J) was calculated based upon a hollow ellipse model (Bell et al. 1941; Engesaeter et al. 1978). The equations used to derive torsional rigidity, shear stress, shear modulus, and J were as follows (Popov 1968): (1) Torsional Rigidity: (Tmax·L)/φ where Tmax is the peak torque value in Nmm, L is the gage length in mm, and φ is the angle at failure in radians. (2) Shear Stress: (Tmax·Rmax)/J where Rmax is the largest radial dimension of the fracture callus in mm (ao) and J is the polar moment of inertia. […]
# [2] = system: rat closed femur fracture model; test: Radiographic analysis of femur fracture healing in NSAID treated rats; format: in vivo, male Sprague-Dawley rats; conditions: for average radiograph score (union 1 point, mal-union 0.5 points, non-union 0 points): 8-week post-fracture radiographs, 7 blinded observers, control rats 0.71
# Method: A total of 253 male Sprague-Dawley rats (584.+−0.62 g) were fed a standard diet and kept caged separately in a constant temperature and humidity environment. All rats were 6-9 months old at the beginning of the experiment. Drugs were administered daily by gavage beginning two days prior to fracture. Animals were randomly selected for each treatment group.
# as §2
# Radiographs were made post-fracture to confirm the position and quality of each fracture and at sacrifice to determine the degree of healing. In addition several rats were selected randomly to produce serial radiographs (at least 2 rats per treatment group). Radiographs were made of these rats weekly under anesthesia until the experimental endpoint (8 weeks). Radiographs of mice were also made under anesthesia. All radiographs were made using a 43805N Faxitron (Hewlett-Packard, McMinnville, Oreg.) and Kodak MinR-2000 mammography film.
# Radiographs were made immediately following fracture production and then every week till the end point of the experiments (8 weeks post-fracture).
# In addition to the serial radiographs made for certain rats, all animals in this study were examined radiographically immediately post-fracture and when euthanized. A random, blinded sample of the 8-week post-fracture radiographs were independently examined by 7 observers and scored as a union (1 point), mal-union (0.5 points), or non-union (0 points).
# [3] = male rats, single drug dose; cited from earlier work
# [4] = system: rat closed femur fracture model; test: Histology of fracture callus; format: in vivo, male Sprague-Dawley rats; conditions: for histology of the healing femur fractures compared to untreated control rat: 2 weeks post-fracture; for cartilage in the fracture callus: 3 and 4 weeks post-fracture; for healing of fractured femurs by histology: 6 and 8 weeks post-fracture
# Method: as §1, §2
# Rats were sacrificed at 2, 3, 4, 6, and 8 weeks post-fracture by CO2 asphyxiation. Both femora were resected and the stainless steel pin was removed from the medullary canal. The harvested femora were fixed in 10% buffered formalin and embedded in polymethylmethacrylate following standard histological techniques for calcified tissue. The samples were sectioned sagitally through the fracture callus using an Isomet diamond saw (Buehler Ltd., Lake Bluff, Ill.), mounted on plexiglass slides, and polished to a thickness of 100 μ.m. The slides were then stained with van Gieson's picrofuchsin and Stevenel's blue in order to identify new bone growth and cartilage formation (Maniatopoulos et al. 1986). Mice femora were fixed, decalcified, paraffin embedded, sectioned, and stained with Masson's trichrome stain. The samples were viewed and photomicrographs were taken using an Olympus BH2-RFCA microscope or an Olympus SZ40 microscope.
# COX-2 = COX-2 (Homo sapiens, UniProt P35354); conditions: cited from earlier work
# [5] = humans, depending upon drug dose; cited from earlier work
# [6] = system: rat closed femur fracture model; conditions: in vivo
# Text: Experimental treatment group values were compared to the no drug values using a χ^2 analysis. Significant differences are noted with an asterisk (P<0.01).
# Pin slippage is dislodgement of the intramedullary stainless steel rod used to stabilize the fracture and permit the rat to weight-bear on the fractured femur. Once fracture stability was lost, the rat was euthanized since the rat could no longer weight-bear on the femur and since the callus would be re-injured and thus alter healing. […] Animals with these complications were excluded.
# [7] = 6 weeks post-fracture, no drug 89
# [8] = 8 weeks post-fracture, no drug 88
# [9] = 8 weeks post-fracture, no drug 101
# COX-2, sequence (P35354 18-604): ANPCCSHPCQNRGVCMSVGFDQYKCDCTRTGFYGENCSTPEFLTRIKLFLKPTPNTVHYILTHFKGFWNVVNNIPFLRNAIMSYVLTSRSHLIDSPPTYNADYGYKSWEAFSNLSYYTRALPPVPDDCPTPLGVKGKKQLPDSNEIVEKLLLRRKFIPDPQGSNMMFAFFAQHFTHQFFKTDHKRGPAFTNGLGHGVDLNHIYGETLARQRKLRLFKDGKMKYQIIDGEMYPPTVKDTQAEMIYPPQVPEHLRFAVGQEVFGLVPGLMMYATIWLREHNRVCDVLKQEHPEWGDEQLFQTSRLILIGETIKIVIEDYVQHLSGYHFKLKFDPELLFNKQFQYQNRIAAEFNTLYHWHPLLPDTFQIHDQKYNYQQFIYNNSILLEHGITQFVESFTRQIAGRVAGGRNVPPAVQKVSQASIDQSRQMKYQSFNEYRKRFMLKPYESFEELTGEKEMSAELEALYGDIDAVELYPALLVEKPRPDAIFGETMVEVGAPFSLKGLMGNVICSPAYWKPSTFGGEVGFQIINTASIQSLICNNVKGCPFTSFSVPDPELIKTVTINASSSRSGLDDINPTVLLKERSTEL
smiles,measurement,setting,value
"Cc1ccc(-c2cc(C(F)(F)F)nn2-c2ccc(S(N)(=O)=O)cc2)cc1 [Celecoxib, celecoxib]",normalized shear stress,[1]; 6 weeks post-fracture,22%
same,normalized torsional rigidity,[1]; [7],50%
same,"Shear Modulus, mean",[1]; 4 wks,0.3 GPa
same,"Peak Torque (Tmax), mean",[1]; 4 wks,302 Nmm
same,"Shear Modulus, mean",[1]; 6 wks,0.9 GPa
same,"Peak Torque (Tmax), mean",[1]; 6 wks,567 Nmm
same,"Shear Modulus, mean",[1]; 8 wks,1.7 GPa
same,"Peak Torque (Tmax), mean",[1]; 8 wks,620 Nmm
same,"Mal-Union (Stage III), frequency",[1],3
same,"Non-Union (Stage I/II), frequency",[1],3
same,"Union (Stage IV), frequency",[1],0
same,rats tested whose fractured femurs healed as mal-unions rather than non-unions,"[1]; rat, in vivo",approximately 50%
same,"average radiograph score (union 1 point, mal-union 0.5 points, non-union 0 points)",[2],0.49
same,estimated plasma half-life,[3],approximately 4 hours
"COc1ccc2c(c1)c(CC(=O)O)c(C)n2C(=O)c1ccc(Cl)cc1 [Indomethacin, indomethacin]",histology of the healing femur fractures compared to untreated control rat,[4],gross abnormalities
same,cartilage in the fracture callus,[4],presence of cartilage
same,healing of fractured femurs by histology,[4],appeared to be healing
same,normalized shear stress,[1]; 6 weeks post-fracture,15%
same,normalized peak torque,"[1]; 6 weeks post-fracture, no drug 77",46%
same,normalized torsional rigidity,[1]; [7],34%
same,normalized maximum shear stress,[1]; 8 weeks post-fracture,not significantly different
same,normalized torsional rigidity,[1]; [8],not significantly different
same,normalized peak torque,[1]; [9],not significantly different
same,effect on fracture healing at the dose and treatment regime used,[1],"delays, but does not prevent fracture healing"
same,"Shear Modulus, mean",[1]; 4 wks,0.3 GPa
same,"Peak Torque (Tmax), mean",[1]; 4 wks,417 Nmm
same,"Shear Modulus, mean",[1]; 6 wks,0.4 GPa
same,"Peak Torque (Tmax), mean",[1]; 6 wks,357 Nmm
same,"Shear Modulus, mean",[1]; 8 wks,1.8 GPa
same,"Peak Torque (Tmax), mean",[1]; 8 wks,469 Nmm
same,"Mal-Union (Stage III), frequency",[1],1
same,"Non-Union (Stage I/II), frequency",[1],1
same,"Union (Stage IV), frequency",[1],6
same,"average radiograph score (union 1 point, mal-union 0.5 points, non-union 0 points)",[2],0.54
same,bridging of the fracture gap (time post fracture),"[2]; radiography, untreated rats approximately 4-5 weeks",5-6 weeks
"CS(=O)(=O)c1ccc(C2=C(c3ccccc3)C(=O)OC2)cc1 [Rofecoxib, rofecoxib]",selectivity for COX-2 relative to COX-1,COX-2,~35 fold
same,histology of the healing femur fractures compared to untreated control rat,[4],gross abnormalities
same,cartilage in the fracture callus,[4],little or no cartilage was evident
same,healing of fractured femurs by histology,[4],no further healing was evident
same,bone resorption at the distal ends of the fracture bones,"[4]; rat, in vivo",massive bone resorption event
same,plasma half-life,[5],10 to 17 h
same,normalized maximum shear stress,[1]; 8 weeks post-fracture,18%
same,normalized torsional rigidity,[1]; [8],31%
same,normalized peak torque,[1]; [9],50%
same,effect on fracture healing at the dose and treatment regime used,[1],stops fracture healing
same,"Shear Modulus, mean",[1]; 4 wks,0.2 GPa
same,"Peak Torque (Tmax), mean",[1]; 4 wks,250 Nmm
same,"Shear Modulus, mean",[1]; 6 wks,0.3 GPa
same,"Peak Torque (Tmax), mean",[1]; 6 wks,383 Nmm
same,"Shear Modulus, mean",[1]; 8 wks,0.5 GPa
same,"Peak Torque (Tmax), mean",[1]; 8 wks,338 Nmm
same,"Mal-Union (Stage III), frequency",[1],1
same,"Non-Union (Stage I/II), frequency",[1],4
same,"Union (Stage IV), frequency",[1],0
same,mechanical properties of the fractured femurs compared to no drug rats,"[1]; rofecoxib: 8 weeks post-fracture, all values measured or derived",significantly less
same,formation of an X-ray dense hard callus,[2]; 2 and 4 week post-fracture radiographs,did not prevent
same,"average radiograph score (union 1 point, mal-union 0.5 points, non-union 0 points)",[2],0.32
same,original fracture on radiograph,[2]; after 8 weeks,still plainly evident
same,infection rate as compared to the no drug rats,[6],statistically significant higher
same,"pin slippage, rats having to be euthanized prior to the endpoint","[6]; male, Sprague-Dawley",≤ 30%
same,estimated plasma half-life,[3],~5 h
